{
  "source": "paper PMC6158189",
  "about": "“A pharmacological probe identifies cystathionine β-synthase as a new negative regulator for ferroptosis” (Cell Death & Disease, 2018)",
  "key": {"[1]": {"system": "HEK293T cells expressing CBS Q222A mutant", "test": "cell viability of HEK293T stable line expressing CBS Q222A", "type": "cell-based", "conditions": "10 µM, 24 h", "experimental": "Figure S15. The mode of actions for CH004 in cells. […] Indicated HEK293T stable cell lines were treated with CH004 at a concentration of 10 µM for 24 h, and the cell viability was then measured using the CellTiter96® Aqueous One Solution Cell Proliferation Assay (Promega). Means ± SDs (n=3). (B-C) CH004 or erastin triggers ferroptosis in mouse embryonic fibroblasts (MEF). WT MEF cells were treated with CH004 or erastin at indicated concentrations in the presence or the absence of 500 µM DFO for 24 h before measuring the lipid ROS with 2 μM BODIPY® 581/591 C11 (Materials and methods). […] Erastin at micromolar concentrations were incubated with HepG2 cells for 24 h before measuring the lipid ROS (see above and Materials and methods). […] Means ± SDs (n=3). […] CH004 or erastin at a concentration of 20 µM was incubated with HepG2 cells for 48 h or 72 h in the presence or the absence of 100 µM DFO. The cell viability was accordingly quantified using the CellTiter96® Aqueous One Solution Cell Proliferation Assay (Promega) and the results were shown as percentages of DMSO (control, 100%). Means ± SDs (n=3). All the experiments were independently repeated at least twice and one representative result is present. Table S1 The inhibitory effects of CH004 on purified hCBS, hCSE and hDDC."}, "[2]": {"system": "HepG2, HEK293T, Huh7, H22, Panc-28, HCT116 and MDA-MB-231 cells", "test": "cell proliferation, all tested cell lines", "type": "cell-based", "conditions": "24 h; read-out: IC50 range, proliferation of all tested cells", "experimental": "With a bioactive and selective inhibitor of CBS in hand, we examined the effect of CH004 on the proliferation of HepG2 and HEK293T cells as well as hepatocellular carcinoma Huh7 and H22, pancreatic cancer Panc-28, colon cancer HCT116 and breast cancer MDA-MB-231 cells. […] HCT116 was the most affected cell line with an IC50 of 4 μM amongst tested cell lines (Fig. 4a and Supplementary Figure 11). […] To confirm that CH004-mediated inhibitory effects are due to the specific inhibition of hCBS, we generated hCBS-overexpressed (293T-CBS WT) stable cell lines by transducing HEK293T cells with lentivirus carrying hCBS WT genes. […] In supporting the pros of CBS on the proliferation, knock-down of CBS indeed substantially retards cell proliferation in HEK293T cells (Supplementary Figure 12c, d). […] Importantly, CH004 could largely retard the colony formation of HepG2 cells with an IC50 of ~8 μM (Supplementary Figure 12e–g).\nTo measure cell viability and cytotoxicity, HepG2, HEK293T, Huh-7, H22, Panc-28, HCT116 and MDA-MB-231 cells were seeded at a density of ~ 2 × 10^4 cells per well in 96-well plates (Coring, NY, USA) for one day, followed by incubation with DMSO or various concentrations of tested compound for indicated times. […]"}, "hCBS-FL": {"target": "T1, hCBS-FL (Homo sapiens, UniProt P35520)", "T1 sequence (P35520 1-551)": "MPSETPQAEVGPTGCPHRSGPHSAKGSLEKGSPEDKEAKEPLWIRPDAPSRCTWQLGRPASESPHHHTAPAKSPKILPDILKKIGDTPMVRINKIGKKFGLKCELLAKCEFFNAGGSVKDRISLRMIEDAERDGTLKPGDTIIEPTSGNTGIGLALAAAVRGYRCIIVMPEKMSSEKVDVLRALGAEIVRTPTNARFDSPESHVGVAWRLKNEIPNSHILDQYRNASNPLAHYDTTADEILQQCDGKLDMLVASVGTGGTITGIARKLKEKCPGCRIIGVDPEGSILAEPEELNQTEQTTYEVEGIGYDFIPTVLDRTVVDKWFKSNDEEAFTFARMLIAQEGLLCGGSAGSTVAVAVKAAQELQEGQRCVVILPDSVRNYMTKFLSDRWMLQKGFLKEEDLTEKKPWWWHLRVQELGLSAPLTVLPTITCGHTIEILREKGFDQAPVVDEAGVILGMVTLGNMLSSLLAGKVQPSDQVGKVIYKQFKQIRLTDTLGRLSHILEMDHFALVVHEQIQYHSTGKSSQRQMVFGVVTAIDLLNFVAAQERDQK", "test": "CBS enzyme assay, H2S quantified by methylene blue method", "type": "biochemical", "design": "human CBS or hCSE full-length (CBS-FL or CSE) was subcloned into pGEX-KG, pcDNA3 or pCDH vector; GST (N); made in house; host or cells: E. coli BL21", "conditions": "150 nM hCBS-FL, 200 μM SAM, 4 mM L-Cys, 4 mM D,L-Hcys, Tris-HCl pH 8.6, 80 min", "experimental": "Fig. 1 CH004 inhibits the activity of hCBS in the in vitro purified enzyme assays under different assay conditions. a A scheme for the cascade enzymatic reactions catalyzed by CBS or CSE. Cth, cystathionine. b, c Inhibitory effects of CH004 on the activity of hCBS-413 (b) or hCSE (c). The enzyme activities were monitored for various concentrations of CH004 under the standard conditions (50 mM Tris-HCl, pH 8.6; “Materials and Methods” section). The result is shown as percentages of the control (DMSO, 100%). The data are shown as means ± SDS (n = 3). d The dose-dependent inhibition of CH004 on the hCBS-413 activity was measured by the tandem-well-based assay under the standard conditions except using 50 mM Hepes buffer (pH 7.4) instead of 50 mM Tris-HCl (pH 8.6). Means ± SDs (n = 3). e The dose-dependent inhibition of CH004 on the CBS activity measured by methylene blue method. […] After 80 min, the assay was stopped by added 10 μL 10% ZnAC and the generated H2S was quantified by N,N-dimethyl-p-phenylenediamine to give an absorbance at 670 nm (for details, see Materials and Methods section; ref. [53]). […]\n^3The IC50 were determined for hCBS-FL by Methyl Blue method (ref. 1)."}},
  "note": "Several values for one entry are separate records, joined by “and”; a condition that tells them apart may be missing. Equal entries are not always repeated.",
  "data": [
    {"compound": "Cn1nc(Cc2ccccc2)nc2c(=O)n(C)c(=O)nc1-2", "note": "[CH004, 3-benzyl-1,6-dimethylpyrimido[5,4-e][1,2,4]triazine-5,7(1H,6H)-dione]", "values": [
      {"measurement": "cell death triggered by CH004 in cells expressing CH004-insensitive CBS Q222A", "setting": "[1]", "result": "partially rescues"},
      {"measurement": "IC50", "setting": "[2]", "result": "4000 to 25000", "unit": "nM"},
      {"measurement": "IC50", "setting": "hCBS-FL", "result": "1710 nM and 1700 nM"}
    ]}
  ]
}
